Here are results for 6 compounds from publication PMC10316084, “Bacteroidota polysaccharide utilization system for branched dextran exopolysaccharides from lactic acid bacteria” (The Journal of Biological Chemistry, 2023).

For one experiment, the target named is T1, FjDusD (Flavobacterium johnsoniae, UniProt A5FBI4).
T1 construct: gene Fjoh_4433; signal peptide evaluated by SignalP
T1 sequence (A5FBI4 22-494): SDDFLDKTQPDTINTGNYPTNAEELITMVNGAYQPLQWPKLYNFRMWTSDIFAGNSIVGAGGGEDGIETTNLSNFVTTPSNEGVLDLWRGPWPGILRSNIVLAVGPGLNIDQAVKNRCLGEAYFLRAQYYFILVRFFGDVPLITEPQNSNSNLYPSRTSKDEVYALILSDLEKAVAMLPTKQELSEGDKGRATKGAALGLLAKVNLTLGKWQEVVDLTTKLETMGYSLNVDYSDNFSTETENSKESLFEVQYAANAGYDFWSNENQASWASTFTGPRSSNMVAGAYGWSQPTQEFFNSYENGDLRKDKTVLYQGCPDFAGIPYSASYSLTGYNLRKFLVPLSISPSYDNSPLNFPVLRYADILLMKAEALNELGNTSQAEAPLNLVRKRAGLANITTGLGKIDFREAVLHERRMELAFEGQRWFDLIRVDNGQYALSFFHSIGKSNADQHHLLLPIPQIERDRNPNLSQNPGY
In words: isothermal titration calorimetry. The format is binding. The conditions noted are these: 10 mM HEPES-NaOH pH 7.0, 25 °C; one-site model (n = 1). An excerpt: isothermal titration calorimetry on FjDusD
(In general: ITC needs no label: the signal is the heat of the interaction.)

The next experiment deals with T2, FjGH66 (Flavobacterium johnsoniae, UniProt A5FBI2).
T2 construct: gene Fjoh_4431; domains 41-126, 127-464, 485-586
T2 sequence (A5FBI2 34-586): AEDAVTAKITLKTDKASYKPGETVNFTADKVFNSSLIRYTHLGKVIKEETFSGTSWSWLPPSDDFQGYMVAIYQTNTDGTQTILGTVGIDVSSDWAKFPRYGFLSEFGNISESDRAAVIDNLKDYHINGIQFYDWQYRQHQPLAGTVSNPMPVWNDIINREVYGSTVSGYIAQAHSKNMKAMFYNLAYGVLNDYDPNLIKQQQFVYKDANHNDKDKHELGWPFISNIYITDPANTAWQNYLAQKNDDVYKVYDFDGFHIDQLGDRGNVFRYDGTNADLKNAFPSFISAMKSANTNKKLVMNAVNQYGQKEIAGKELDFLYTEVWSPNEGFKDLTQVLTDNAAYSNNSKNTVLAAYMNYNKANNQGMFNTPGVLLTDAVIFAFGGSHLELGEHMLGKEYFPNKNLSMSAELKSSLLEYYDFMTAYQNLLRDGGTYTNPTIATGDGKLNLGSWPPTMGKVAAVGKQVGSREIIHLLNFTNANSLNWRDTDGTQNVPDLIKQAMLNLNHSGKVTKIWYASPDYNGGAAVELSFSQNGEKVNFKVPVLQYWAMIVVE
In words: X-ray crystal structure, […] Å. The format is binding.

For the compound `OC[C@H]1O[C@H](OC[C@H]2O[C@H](OC[C@H]3O[C@H](OC[C@H]4O[C@H](OC[C@H]5O[C@H](OC[C@H]6OC(O)[C@H](O)[C@@H](O)[C@@H]6O)[C@H](O)[C@@H](O)[C@@H]5O)[C@H](O)[C@@H](O)[C@@H]4O)[C@H](O)[C@@H](O)[C@@H]3O)[C@H](O)[C@@H](O)[C@@H]2O)[C@H](O)[C@@H](O)[C@@H]1O` (stereo partly drawn) [Isomaltohexaose], the Kd (in general, a measure of binding affinity in units of concentration) at FjDusD was 467 ± 156 µM. As to `OC[C@H]1O[C@H](OC[C@H]2O[C@H](OC[C@H]3O[C@H](OC[C@H]4O[C@H](OC[C@H]5OC(O)[C@H](O)[C@@H](O)[C@@H]5O)[C@H](O)[C@@H](O)[C@@H]4O)[C@H](O)[C@@H](O)[C@@H]3O)[C@H](O)[C@@H](O)[C@@H]2O)[C@H](O)[C@@H](O)[C@@H]1O` (stereo partly drawn) [Isomaltopentaose], on FjDusD, the Kd worked out at 226 ± 29 µM. Regarding `OC[C@H]1O[C@H](OC[C@H]2OC(O)[C@H](O)[C@@H](O)[C@@H]2O)[C@H](O)[C@@H](O)[C@@H]1O` (stereo partly drawn) [Isomaltose], the “X-ray crystal structure, 1.80 Å” value at FjGH66 (crystal soaked with 10 mM IG2) is “complexes with glucose, IG2, or IG3 were determined”. `OC[C@H]1O[C@H](OC[C@H]2O[C@H](OC[C@H]3O[C@H](OC[C@H]4OC(O)[C@H](O)[C@@H](O)[C@@H]4O)[C@H](O)[C@@H](O)[C@@H]3O)[C@H](O)[C@@H](O)[C@@H]2O)[C@H](O)[C@@H](O)[C@@H]1O` (stereo partly drawn) [Isomaltotetraose]: at FjDusD, the Kd came to 326 ± 14 µM. On the same count and under the same terms, in the case of `OC[C@H]1O[C@H](OC[C@H]2O[C@H](OC[C@H]3OC(O)[C@H](O)[C@@H](O)[C@@H]3O)[C@H](O)[C@@H](O)[C@@H]2O)[C@H](O)[C@@H](O)[C@@H]1O` (stereo partly drawn) [Isomaltotriose] it was 621 ± 23 µM. In the case of `OC[C@H]1OC(O)[C@H](O)[C@@H](O)[C@@H]1O` (stereo partly drawn) [glucose], the “X-ray crystal structure, 1.80 Å” value on FjGH66 (crystal soaked with 10 mM glucose) is given as “complexes with glucose, IG2, or IG3 were determined”.
